Here are results for 13 molecules from patent EP4685482A1, “METHOD FOR SELECTING DRUGS FOR THE TREATMENT OF MENTAL HEALTH PATHOLOGIES” (Neomente Corp, priority 2023, dated 2024).

The test system of this data set is Patients diagnosed with unipolar depression. In words: Clinical follow-up of patients with the SIGH-D-17 scale (treatment as usual vs guided by the Clinical Decision Support System), case examples. In kind it is in vivo. Conditions: for response to treatment regimen (patient history): Example 1: regimen of escitalopram, sertraline, risperidone, clonazepam and lamotrigine. Here is the method: Patients diagnosed with unipolar depression were recruited and divided into two groups. The first group Treatment as Usual (TAU) received treatment according to psychiatry clinical guidelines. The second group received Clinical Decision Support System Guided (CCDSg) additional support from the method for selecting neuropsychiatric drugs. Follow-up was conducted using the SIGH-D-17 scale in both groups at the beginning of treatment and 8 and 12 weeks. […]
Based on the algorithm results, it was decided to discontinue the previous pharmacological regimen and initiate a new one consisting of desvenlafaxine and aripiprazole. A significant response was observed within 8 weeks of treatment initiation (69% reduction in SIGH-D-17 scale).
While awaiting the results of the application of this method, pharmacological treatment with sertraline was initiated. […] These findings are consistent with the genetic variations found (alteration of the CYP2C19 enzyme). Subsequently, and with the results of the application of this method, pharmacological treatment with vortioxetine was implemented, achieving remission at 12 weeks.
(53% reduction in SIGH-D-17 scale).

The mark [1] stands for this setting: Example 1: person, severe unipolar depression, new regimen consisting of desvenlafaxine and aripiprazole, within 8 weeks of treatment initiation.
Where [2] appears, read: Example 3: person, treatment-resistant unipolar depression.
The mark [3] stands for this setting: Example 4: person, depressive episode.

Consider `O=C1CCc2ccc(OCCCCN3CCN(c4cccc(Cl)c4Cl)CC3)cc2N1` [Aripiprazole], for which the “reduction in SIGH-D-17 scale” value under setting [1] is reported as 69%. For the molecule `O=c1ccc2ccc(OCCCCN3CCN(c4cccc5sccc45)CC3)cc2[nH]1` [Brexpiprazole], the “reduction in SIGH-D-17 scale” value (Example 3: person, treatment-resistant unipolar depression, quetiapine gradually replaced by brexpiprazole, at 8 weeks of treatment) came out at 53%. For `CN(C)C(=O)N[C@H]1CC[C@H](CCN2CCN(c3cccc(Cl)c3Cl)CC2)CC1` [Cariprazine], under setting [2], the “response (pharmacological history)” value is “no response”. On the same count and under the same terms, next, `CN(C)CCCN1c2ccccc2CCc2ccc(Cl)cc21` [Clomipramine]: “no response”. For `CN(C)CC(c1ccc(O)cc1)C1(O)CCCCC1` (stereo not shown) [Desvenlafaxine], the “reduction in SIGH-D-17 scale” value under setting [1] is recorded as 69%. For the same molecule, the “response (pharmacological history)” value under setting [2] is reported as “no response”. Turning to `CN(C)CCC[C@@]1(c2ccc(F)cc2)OCc2cc(C#N)ccc21` [Escitalopram], the “response to treatment regimen (patient history)” value (from here on “response to treatment regimen”) is recorded as “subtherapeutic response”. Also, under setting [2], the “response (pharmacological history)” value was “no response”.

For `Cc1nc2n(c(=O)c1CCN1CCC(c3noc4cc(F)ccc34)CC1)CCCC2` [Risperidone], the “response to treatment regimen” value was “subtherapeutic response”. For `CN[C@H]1CC[C@@H](c2ccc(Cl)c(Cl)c2)c2ccccc21` [Sertraline], the “response to treatment regimen” value is reported as “subtherapeutic response”. The side effects result (Example 2: CYP2C19 intermediate metabolizer, treatment had to be discontinued) is “side effects at low doses”. Take `COc1ccc(C(CN(C)C)C2(O)CCCCC2)cc1` (stereo not shown) [Venlafaxine]: under setting [3], the “response (pharmacological history)” value was “ineffective”. With `N#Cc1ccc2[nH]cc(CCCCN3CCN(c4ccc5oc(C(N)=O)cc5c4)CC3)c2c1` [Vilazodone], under setting [2], the “response (pharmacological history)” value was “no response”. As to `Cc1ccc(Sc2ccccc2N2CCNCC2)c(C)c1` [Vortioxetine], the “reduction in SIGH-D-17 scale” value (Example 2: person, mild unipolar depression, vortioxetine, remission at 12 weeks) is 67%. Also, under setting [2], the “response (pharmacological history)” value is “no response”. With `O=C1CN=C(c2ccccc2Cl)c2cc([N+](=O)[O-])ccc2N1` [clonazepam], the “response to treatment regimen” value is on record as “subtherapeutic response”. For the same molecule, under setting [3], the “response (pharmacological history)” value is “poor response”.

Turning to `Nc1nnc(-c2cccc(Cl)c2Cl)c(N)n1` [lamotrigine], the “response to treatment regimen” value is on record as “subtherapeutic response”. The “response (pharmacological history)” value under setting [3] is “ineffective”.
